Laboratory results reported in patent US6358885B1, “Substituted phenylheterocyclic herbicides” (Mississippi State University, priority 1992, dated 2002).

Assays:
barley [1] = test: Test B preemergence/postemergence greenhouse plant response rating 0 to 10; format: in vivo, Hordeum vulgare; conditions: for Plant response rating, Barley: 0 to 10 scale
How it was run: (§1)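 Planted seeds are treated preemergence with compound dissolved in a non-phytotoxic solvent, while postemergence applications go onto plants of two to eighteen cm. Plants stay in the greenhouse twelve to sixteen days and are then rated visually relative to controls.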

morningglory [2] = test: as above; format: in vivo, Ipomoea hederacea; conditions: 0 to 10 scale
How it was run: as §1

giant foxtail [3] = test: Test C preemergence/postemergence greenhouse plant response rating 0 to 100; format: in vivo, Setaria faberii; conditions: for Plant response rating, Giant foxtail: 0 to 100 scale
How it was run: (§2)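 Compounds in non-phytotoxic solvent went onto sandy loam before emergence (seeded one day earlier) or onto plants at the one-to-four leaf stage. Duck salad was treated via flood water (~2.5 cm, maintained) over silt loam.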

bedstraw = test: Test B preemergence/postemergence greenhouse plant response rating 0 to 10; format: in vivo, Galium aparine; conditions: for Plant response rating, Bedstraw: 0 to 10 scale
How it was run: as §1

barley [4] = test: Test C preemergence/postemergence greenhouse plant response rating 0 to 100; format: in vivo, Hordeum vulgare; conditions: for Plant response rating Barley Igri: 0 to 100 scale
How it was run: as §2

blackgrass = test: as above; format: in vivo, Alopecurus myosuroides; conditions: for Plant response rating, Blackgrass: 0 to 100 scale
How it was run: as §2

rice = test: Test C flood test plant response rating 0 to 100; format: in vivo, Oryza sativa; conditions: for Plant response rating Rice Japonica: flood test species listed under POSTEMERGENCE, 0 to 100 scale
How it was run: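 Compounds in non-phytotoxic solvent applied preemergence to sandy loam one day after planting, postemergence at the 1–4 leaf stage, or to ~2.5 cm floodwater over silt loam.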

velvetleaf = test: Test B preemergence/postemergence greenhouse plant response rating 0 to 10; format: in vivo, Abutilon theophrasti; conditions: 0 to 10 scale
How it was run: as §1

rape = test: Test C preemergence/postemergence greenhouse plant response rating 0 to 100; format: in vivo, Brassica napus; conditions: for Plant response rating, Rape: 0 to 100 scale
How it was run: as §2

cheatgrass = test: Test B preemergence/postemergence greenhouse plant response rating 0 to 10; format: in vivo, Bromus secalinus; conditions: for Plant response rating, Cheatgrass: 0 to 10 scale
How it was run: as §1

giant foxtail [5] = test: as above; format: in vivo, Setaria faberii; conditions: 0 to 10 scale
How it was run: as §1

chickweed = test: Test C preemergence/postemergence greenhouse plant response rating 0 to 100; format: in vivo, Stellaria media; conditions: for Plant response rating, Chickweed: 0 to 100 scale
How it was run: as §2

sorghum = test: as above; format: in vivo, Sorghum bicolor; conditions: for Plant response rating, Sorghum: 0 to 100 scale
How it was run: as §2

cocklebur = test: Test B preemergence/postemergence greenhouse plant response rating 0 to 10; format: in vivo, Xanthium pensylvanicum; conditions: for Plant response rating, Cocklebur: 0 to 10 scale
How it was run: as §1

soybean [6] = test: Test C preemergence/postemergence greenhouse plant response rating 0 to 100; format: in vivo, Glycine max; conditions: for Plant response rating, Soybean: 0 to 100 scale
How it was run: as §2

lambsquarters = test: Test B preemergence/postemergence greenhouse plant response rating 0 to 10; format: in vivo, Chenopodium album; conditions: 0 to 10 scale
How it was run: as §1

soybean [7] = test: as above; format: in vivo, Glycine max; conditions: 0 to 10 scale
How it was run: as §1

morningglory [8] = test: Test C preemergence/postemergence greenhouse plant response rating 0 to 100; format: in vivo, Ipomoea hederacea; conditions: for Plant response rating, Morningglory: 0 to 100 scale
How it was run: as §2

Compound: C#CCOc1cc(-c2nn3c(c2Br)CCCC3)c(F)cc1Cl [Compound 26]
- Plant response rating (0 to 10 scale), Barley (barley [1]; POSTEMERGENCE, Rate 50 g/ha): 4
- Plant response rating, Barley (barley [1]; POSTEMERGENCE, Rate 200 g/ha): 6
- Plant response rating, Barley (barley [1]; PREEMERGENCE, Rate 50 g/ha): 0
- Plant response rating, Barley (barley [1]; Rate 200 g/ha, PREEMERGENCE): 1
- Plant response rating, Morningglory (morningglory [2]; POSTEMERGENCE, Rate 50 g/ha): 9
- Plant response rating, Morningglory (morningglory [2]; POSTEMERGENCE, Rate 200 g/ha): 9
- Plant response rating, Morningglory (morningglory [2]; PREEMERGENCE, Rate 50 g/ha): 2
- Plant response rating, Morningglory (morningglory [2]; Rate 200 g/ha, PREEMERGENCE): 9
- Plant response rating, Giant foxtail (giant foxtail [3]; POSTEMERGENCE, 62 g/ha): 50
- Plant response rating, Giant foxtail (giant foxtail [3]; POSTEMERGENCE, 250 g/ha): 70
- Plant response rating (0 to 100), Giant foxtail (giant foxtail [3]; POSTEMERGENCE, Rate 4 g/ha): 0
- Plant response rating, Giant foxtail (giant foxtail [3]; PREEMERGENCE, 62 g/ha): 70
- Plant response rating, Giant foxtail (giant foxtail [3]; PREEMERGENCE, 250 g/ha): 100
- Plant response rating (0 to 100), Giant foxtail (giant foxtail [3]; PREEMERGENCE, Rate 4 g/ha): 0
- Plant response rating (0 to 100), Giant foxtail (giant foxtail [3]; Rate 16 g/ha, POSTEMERGENCE): 40
- Plant response rating (0 to 100), Giant foxtail (giant foxtail [3]; Rate 16 g/ha, PREEMERGENCE): 30
- Plant response rating (0 to 10 scale), Bedstraw (bedstraw; POSTEMERGENCE, Rate 50 g/ha): 9
- Plant response rating, Bedstraw (bedstraw; POSTEMERGENCE, Rate 200 g/ha): 9
- Plant response rating, Bedstraw (bedstraw; PREEMERGENCE, Rate 50 g/ha): 10
- Plant response rating, Bedstraw (bedstraw; Rate 200 g/ha, PREEMERGENCE): 10
- Plant response rating Barley Igri (barley [4]; POSTEMERGENCE, 62 g/ha): 40
- Plant response rating Barley Igri (barley [4]; POSTEMERGENCE, 250 g/ha): 50
- Plant response rating Barley Igri (barley [4]; PREEMERGENCE, 62 g/ha): 0
- Plant response rating Barley Igri (barley [4]; PREEMERGENCE, 250 g/ha): 20
- Plant response rating (0 to 100), Barley Igri (barley [4]; PREEMERGENCE, Rate 4 g/ha): 0
- Plant response rating (0 to 100), Barley Igri (barley [4]; Rate 4 g/ha, POSTEMERGENCE): 20
- Plant response rating (0 to 100), Barley Igri (barley [4]; Rate 16 g/ha, POSTEMERGENCE): 20
- Plant response rating (0 to 100), Barley Igri (barley [4]; Rate 16 g/ha, PREEMERGENCE): 0
- Plant response rating, Blackgrass (blackgrass; POSTEMERGENCE, 62 g/ha): 40
- Plant response rating, Blackgrass (blackgrass; POSTEMERGENCE, 250 g/ha): 70
- Plant response rating, Blackgrass (blackgrass; PREEMERGENCE, 62 g/ha): 20
- Plant response rating, Blackgrass (blackgrass; PREEMERGENCE, 250 g/ha): 40
- Plant response rating (0 to 100), Blackgrass (blackgrass; PREEMERGENCE, Rate 4 g/ha): 0
- Plant response rating (0 to 100), Blackgrass (blackgrass; Rate 4 g/ha, POSTEMERGENCE): 30
- Plant response rating (0 to 100), Blackgrass (blackgrass; Rate 16 g/ha, POSTEMERGENCE): 40
- Plant response rating (0 to 100), Blackgrass (blackgrass; Rate 16 g/ha, PREEMERGENCE): 0
- Plant response rating (0 to 100), Rice Japonica (rice; POSTEMERGENCE section, flood test, Rate 4 g/ha): 40
- Plant response rating (0 to 100), Rice Japonica (rice; Rate 16 g/ha, under POSTEMERGENCE head (flood test species)): 65
- Plant response rating Rice Japonica (rice; 62 g/ha): 80
- Plant response rating Rice Japonica (rice; 250 g/ha): 85
- Plant response rating, Velvetleaf (velvetleaf; POSTEMERGENCE, Rate 50 g/ha): 10
- Plant response rating, Velvetleaf (velvetleaf; POSTEMERGENCE, Rate 200 g/ha): 10
- Plant response rating, Velvetleaf (velvetleaf; PREEMERGENCE, Rate 50 g/ha): 10
- Plant response rating, Velvetleaf (velvetleaf; Rate 200 g/ha, PREEMERGENCE): 10
- Plant response rating, Rape (rape; POSTEMERGENCE, 62 g/ha): 100
- Plant response rating, Rape (rape; POSTEMERGENCE, 250 g/ha): 100
- Plant response rating (0 to 100), Rape (rape; POSTEMERGENCE, Rate 4 g/ha): 80
- Plant response rating, Rape (rape; PREEMERGENCE, 62 g/ha): 20
- Plant response rating, Rape (rape; PREEMERGENCE, 250 g/ha): 30
- Plant response rating (0 to 100), Rape (rape; PREEMERGENCE, Rate 4 g/ha): 0
- Plant response rating (0 to 100), Rape (rape; Rate 16 g/ha, POSTEMERGENCE): 90
- Plant response rating (0 to 100), Rape (rape; Rate 16 g/ha, PREEMERGENCE): 0
- Plant response rating (0 to 10 scale), Cheatgrass (cheatgrass; POSTEMERGENCE, Rate 50 g/ha): 5
- Plant response rating, Cheatgrass (cheatgrass; POSTEMERGENCE, Rate 200 g/ha): 7
- Plant response rating, Cheatgrass (cheatgrass; PREEMERGENCE, Rate 50 g/ha): 6
- Plant response rating, Cheatgrass (cheatgrass; Rate 200 g/ha, PREEMERGENCE): 7
- Plant response rating, Giant foxtail (giant foxtail [5]; POSTEMERGENCE, Rate 50 g/ha): 4
- Plant response rating, Giant foxtail (giant foxtail [5]; POSTEMERGENCE, Rate 200 g/ha): 6
- Plant response rating, Giant foxtail (giant foxtail [5]; PREEMERGENCE, Rate 50 g/ha): 6
- Plant response rating, Giant foxtail (giant foxtail [5]; Rate 200 g/ha, PREEMERGENCE): 10
- Plant response rating, Chickweed (chickweed; POSTEMERGENCE, 62 g/ha): 100
- Plant response rating, Chickweed (chickweed; POSTEMERGENCE, 250 g/ha): 100
- Plant response rating, Chickweed (chickweed; PREEMERGENCE, 62 g/ha): 100
- Plant response rating, Chickweed (chickweed; PREEMERGENCE, 250 g/ha): 100
- Plant response rating (0 to 100), Chickweed (chickweed; PREEMERGENCE, Rate 4 g/ha): 50
- Plant response rating (0 to 100), Chickweed (chickweed; Rate 4 g/ha, POSTEMERGENCE): 50
- Plant response rating (0 to 100), Chickweed (chickweed; Rate 16 g/ha, POSTEMERGENCE): 80
- Plant response rating (0 to 100), Chickweed (chickweed; Rate 16 g/ha, PREEMERGENCE): 50
- Plant response rating, Sorghum (sorghum; POSTEMERGENCE, 62 g/ha): 50
- Plant response rating, Sorghum (sorghum; POSTEMERGENCE, 250 g/ha): 50
- Plant response rating (0 to 100), Sorghum (sorghum; POSTEMERGENCE, Rate 4 g/ha): 20
- Plant response rating, Sorghum (sorghum; PREEMERGENCE, 250 g/ha): 50
- Plant response rating (0 to 100), Sorghum (sorghum; PREEMERGENCE, Rate 4 g/ha): 0
- Plant response rating (0 to 100), Sorghum (sorghum; Rate 16 g/ha, POSTEMERGENCE): 30
- Plant response rating (0 to 100), Sorghum (sorghum; Rate 16 g/ha, PREEMERGENCE): 20
- Plant response rating (0 to 10 scale), Cocklebur (cocklebur; POSTEMERGENCE, Rate 50 g/ha): 10
- Plant response rating, Cocklebur (cocklebur; POSTEMERGENCE, Rate 200 g/ha): 10
- Plant response rating, Cocklebur (cocklebur; PREEMERGENCE, Rate 50 g/ha): 1
- Plant response rating, Cocklebur (cocklebur; Rate 200 g/ha, PREEMERGENCE): 9
- Plant response rating, Soybean (soybean [6]; POSTEMERGENCE, 62 g/ha): 60
- Plant response rating, Soybean (soybean [6]; POSTEMERGENCE, 250 g/ha): 60
- Plant response rating (0 to 100), Soybean (soybean [6]; POSTEMERGENCE, Rate 4 g/ha): 20
- Plant response rating, Soybean (soybean [6]; PREEMERGENCE, 250 g/ha): 100
- Plant response rating (0 to 100), Soybean (soybean [6]; PREEMERGENCE, Rate 4 g/ha): 0
- Plant response rating (0 to 100), Soybean (soybean [6]; Rate 16 g/ha, POSTEMERGENCE): 50
- Plant response rating (0 to 100), Soybean (soybean [6]; Rate 16 g/ha, PREEMERGENCE): 0
- Plant response rating, Lambsquarter (lambsquarters; POSTEMERGENCE, Rate 50 g/ha): 10
- Plant response rating, Lambsquarter (lambsquarters; POSTEMERGENCE, Rate 200 g/ha): 10
- Plant response rating, Lambsquarter (lambsquarters; PREEMERGENCE, Rate 50 g/ha): 10
- Plant response rating, Lambsquarter (lambsquarters; Rate 200 g/ha, PREEMERGENCE): 10
- Plant response rating, Soybean (soybean [7]; POSTEMERGENCE, Rate 50 g/ha): 8
- Plant response rating, Soybean (soybean [7]; POSTEMERGENCE, Rate 200 g/ha): 9
- Plant response rating, Soybean (soybean [7]; PREEMERGENCE, Rate 50 g/ha): 1
- Plant response rating, Soybean (soybean [7]; Rate 200 g/ha, PREEMERGENCE): 3
- Plant response rating, Morningglory (morningglory [8]; POSTEMERGENCE, 62 g/ha): 70
- Plant response rating, Morningglory (morningglory [8]; POSTEMERGENCE, 250 g/ha): 100
- Plant response rating (0 to 100), Morningglory (morningglory [8]; POSTEMERGENCE, Rate 4 g/ha): 50
- Plant response rating, Morningglory (morningglory [8]; PREEMERGENCE, 62 g/ha): 20
- Plant response rating, Morningglory (morningglory [8]; PREEMERGENCE, 250 g/ha): 100
- Plant response rating (0 to 100), Morningglory (morningglory [8]; PREEMERGENCE, Rate 4 g/ha): 0
- Plant response rating (0 to 100), Morningglory (morningglory [8]; Rate 16 g/ha, POSTEMERGENCE): 70
- Plant response rating (0 to 100), Morningglory (morningglory [8]; Rate 16 g/ha, PREEMERGENCE): 0
